Tests used:
[1] = target: human hematopoietic prostaglandin D2 synthase (Homo sapiens, UniProt O60760); test: Inhibitory activity against spleen-type (hematopoietic) prostaglandin D2 synthase, [14C]PGH2 to PGD2, TLC; type: biochemical; details: for inhibition at 10 µM / inhibition at 30 µM: read-out: Inhibitory Ratio of Prostaglandin D2 (PGD2) Synthase (%)
Description: A buffer solution of 100 mM Tris (hydroxymethyl)aminomethane/HCl buffer (pH8.0) containing glutathione (0.1 mM) and human hematopoietic prostaglandin D2 synthase (adequate quantity) was preincubated at 25° C. for 5 minutes in the presence or absence of a test compound, and then 14C labeled prostaglandin H2 ([14C]PGH2) (10 μM) was added, and the buffer solution was further incubated at 25° C. for one minute. A mixture of ether, methanol, and citric acid was added to the reaction mixture, and the ether layer was developed on silica gel thin-layer chromatography (TLC) (eluent=ether: methanol: acetic acid=90:2:1), and the PGD2 produced was measured by exposure to an imaging plate. The enzyme inhibitory rates of test compounds were calculated assuming the amount of production of PGD2 without the test compound being 100%.

[2] = test system: RBL-2H3, a rat basophilic leukemia cell to express hematopoietic prostaglandin D synthase; test: Prostaglandin D2 production inhibition test using cells (A23187-induced, EIA); type: cell-based; details: RBL-2H3 cells, A23187 2.5 μM; for inhibition at 10 µM: Rattus norvegicus, RBL-2H3, Drug Concentration 10 μM, read-out: Inhibitory Ratio of Prostaglandin D2 (PGD2) Production (%)
Description: RBL-2H3, a rat basophilic leukemia cell to express hematopoietic prostaglandin D synthase, was inoculated in a 24 well plate and incubated overnight. After replacement with a medium in the presence or absence of a test compound, preincubation was carried out at 37° C. for one hour. After washing of the cells with PBS(-), the medium was replaced with a Hepes buffer solution (pH7.4) in the presence or absence of the test compound, and incubation was continued at 37° C. for 15 minutes. Then, calcium ionophore (A23187) at a final concentration of 2.5 μM was added, and incubation was carried out at 37° C. for 15 minutes to induce the production of PGD2. The supernatant of the cells was collected, and the amount of PGD2 flowed out in the supernatant was measured by EIA kit by Cayman. The inhibitory ratio of the production of PGD2 by the test compound was calculated assuming the amount of PGD2 produced by A23187 in the absence of the test compound as being 100%.

Chain of human hematopoietic prostaglandin D2 synthase (O60760 whole entry): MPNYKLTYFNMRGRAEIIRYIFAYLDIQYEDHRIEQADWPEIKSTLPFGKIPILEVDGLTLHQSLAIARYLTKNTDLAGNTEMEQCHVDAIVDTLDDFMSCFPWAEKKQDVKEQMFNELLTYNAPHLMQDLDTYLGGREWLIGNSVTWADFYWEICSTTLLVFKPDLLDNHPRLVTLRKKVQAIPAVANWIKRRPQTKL

| SMILES | inhibition at 10 µM ([1]; Drug Concentration 10 μM) | inhibition at 30 µM ([1]; Drug Concentration 30 μM) | Inhibitory Ratio of Prostaglandin D2 (PGD2) Synthase (%) ([1]; Drug Concentration 10 μM) | Inhibitory Ratio of Prostaglandin D2 (PGD2) Synthase (%) ([1]; Drug Concentration 30 μM) | inhibition at 10 µM [2] | Inhibitory Ratio of Prostaglandin D2 (PGD2) Production (%) ([2]; Drug Concentration 10 μM) |
| --- | --- | --- | --- | --- | --- | --- |
| Cc1nn(-c2ccc([N+](=O)[O-])cc2)c(O)c1C=Nn1c(C)nc2ccccc2c1=O [Compound 20, 3-{[3-methyl-1-(4-nitrophenyl)-5-hydroxypyrazol-4-yl]-methylidene}amino-2-methyl-3,4-dihydroquinazolin-4-one] | 37% | 83% | – | – | 15% | – |
| Cc1nn(-c2ccccc2)c(O)c1/C=N/n1c(C)nc2ccccc2c1=O [Compound 1, 3-[(5-hydroxy-3-methyl-1-phenylpyrazol-4-yl)methylidene]-amino-2-methyl-3,4-dihydroquinazolin-4-one] | 50% | 76% | – | – | 26% | – |
| CCOc1c(/C=N/n2c(C)nc3ccccc3c2=O)c(C)nn1-c1ccccc1 [Compound 3, 3-[(5-ethoxy-3-methyl-1-phenylpyrazol-4-yl)methylidene]amino-2-methyl-3,4-dihydroquinazolin-4-one] | 13% | – | – | – | 21% | – |

The next lines start with results.

| inhibition at 10 µM ([1]; Drug Concentration 10 μM) | inhibition at 30 µM ([1]; Drug Concentration 30 μM) | Inhibitory Ratio of Prostaglandin D2 (PGD2) Synthase (%) ([1]; Drug Concentration 10 μM) | Inhibitory Ratio of Prostaglandin D2 (PGD2) Synthase (%) ([1]; Drug Concentration 30 μM) | SMILES | inhibition at 10 µM [2] | Inhibitory Ratio of Prostaglandin D2 (PGD2) Production (%) ([2]; Drug Concentration 10 μM) |
| --- | --- | --- | --- | --- | --- | --- |
| – | – | 51% | 71% | COc1ccc(-c2nc3ccccc3c(=O)n2N=Cc2c(C)nn(-c3ccccc3)c2O)cc1 [Compound 30, 3-[(5-hydroxy-3-methyl-1-phenylpyrazol-4-yl)methylidene]-amino-2-(4-methoxyphenyl)-3,4-dihydroquinazolin-4-one] | – | 28% |
| 15% | 56% | – | – | Cc1nn(-c2ccccc2)c(O)c1/C=N/n1c(C)nc2ccc(Br)cc2c1=O [Compound 37, 6-bromo-3-[(5-hydroxy-3-methyl-1-phenylpyrazol-4-yl)-methylidene]amino-2-methyl-3,4-dihydroquinazolin-4-one] | 32% | – |
